The test system of the experiment is cancer cell lines. As to the kind of experiment: Growth inhibitory effects on the panel of cancer cell lines. Type of experiment: cell-based. Conditions: drug 10 μM, 72 hours, WST-1.

Where a name gives a salt, the structure may show the parent alone.

As for `C[N+](C)(C)C[C@H](O)CC(=O)[O-]` [L-carnitine (Levocarnitine), L-carnitine], the “inhibition effect on different cancer cell lines (in words)” value is on record as “significant inhibition effect”.

For the molecule `C[C@H](N[C@@H](CCc1ccccc1)C(=O)O)C(=O)N1CCC[C@H]1C(=O)O.O.O` [Enalaprilat dehydrate], the “inhibition effect on different cancer cell lines (in words)” value is on record as “significant inhibition effect”.

With `CC[C@H](C)C(=O)O[C@H]1CCC=C2C=C[C@H](C)[C@H](CC[C@@H]3C[C@@H](O)CC(=O)O3)[C@H]21` [Mevastatin], the “inhibition effect on different cancer cell lines (in words)” value is listed as “significant inhibition effect”.

Turning to `CCCCC1=NC2(CCCC2)C(=O)N1Cc1ccc(-c2ccccc2-c2nnn[nH]2)cc1` [Irbesartan (Avapro), Irbesartan], the “inhibition effect on different cancer cell lines (in words)” value is recorded as “significant inhibition effect”.

For `CCCC(CCC)C(=O)[O-].[Na+]` [Valproic acid sodium salt], the “inhibition effect on different cancer cell lines (in words)” value is reported as “significant inhibition effect”.

As for `NC(N)=Nc1nc(CSCCC(N)=NS(N)(=O)=O)cs1` [Famotidine (Pepcid), Famotidine], the “inhibition effect on different cancer cell lines (in words)” value was “significant inhibition effect”.

For the molecule `CC(S)C(=O)NCC(=O)O` (stereo not shown) [Tiopronin (Thiola), Tiopronin], the “inhibition effect on different cancer cell lines (in words)” value was “significant inhibition effect”.

Regarding `CC(Oc1c(Cl)cccc1Cl)C1=NCCN1` (stereo not shown) [Lofexidine HCl], the “inhibition effect on different cancer cell lines (in words)” value was “significant inhibition effect”.

On to `CCOC(=O)C1=C(C)NC(C)=C(C(=O)OCC)C1c1ccccc1/C=C/C(=O)OC(C)(C)C` [Lacidipine (Lacipil, Motens), Lacidipine], for which the “inhibition effect on different cancer cell lines (in words)” value is reported as “significant inhibition effect”.

For the molecule `CC(=O)Oc1cc2c(s1)CCN(C(C(=O)C1CC1)c1ccccc1F)C2` (stereo not shown) [Prasugrel (Effient), Prasugrel], the “inhibition effect on different cancer cell lines (in words)” value is recorded as “significant inhibition effect”.

Consider `Nc1ccc(/N=N/c2ccccc2)c(N)n1` [Phenazopyridine HCl], for which the “inhibition effect on different cancer cell lines (in words)” value is listed as “significant inhibition effect”.

With `Cc1c(O)c(=O)ccn1C` [Deferiprone], the “inhibition effect on different cancer cell lines (in words)” value was “significant inhibition effect”.

Regarding `OC[C@@H](O)[C@@H](O)[C@H](O)[C@H](O)CO` [D-Mannitol (Osmitrol), D-Mannitol], the “inhibition effect on different cancer cell lines (in words)” value is on record as “significant inhibition effect”.

With `O=C(NCCO[N+](=O)[O-])c1cccnc1` [Nicorandil (Ikorel), Nicorandil], the “inhibition effect on different cancer cell lines (in words)” value is “significant inhibition effect”.

Turning to `CCCc1nc2c(C)cc(-c3nc4ccccc4n3C)cc2n1Cc1ccc(-c2ccccc2C(=O)O)cc1` [Telmisartan (Micardis), Telmisartan], the “inhibition effect on different cancer cell lines (in words)” value is listed as “significant inhibition effect”.

For `COc1ccc([C@@H]2Sc3ccccc3N(CCN(C)C)C(=O)[C@@H]2OC(C)=O)cc1` [Diltiazem HCl (Tiazac), Diltiazem HCl], the “inhibition effect on different cancer cell lines (in words)” value is on record as “significant inhibition effect”.

On to `CCOC(=O)C1=C[C@@H](OC(CC)CC)[C@H](NC(C)=O)[C@@H](N)C1` [Oseltamivir phosphate (Tamiflu), Oseltamivir phosphate], for which the “inhibition effect on different cancer cell lines (in words)” value is “significant inhibition effect”.

`COc1ccccc1OCC(O)CN1CCN(CC(=O)Nc2c(C)cccc2C)CC1` (stereo not shown) [Ranolazine dihydrochloride]: the “inhibition effect on different cancer cell lines (in words)” value was “significant inhibition effect”.

In the case of `N[C@@H]1CCCCN(c2c(F)cc3c(=O)c(C(=O)O)cn(C4CC4)c3c2Cl)C1` [Besifloxacin HCl (Besivance), Besifloxacin HCl], the “inhibition effect on different cancer cell lines (in words)” value is on record as “significant inhibition effect”.

As for `Oc1ccc(OC2CCCCO2)cc1` (stereo not shown) [Deoxyarbutin], the “inhibition effect on different cancer cell lines (in words)” value was “significant inhibition effect”.

Take `CCCCc1oc2ccccc2c1C(=O)c1cc(I)c(OCCN(CC)CC)c(I)c1` [Amiodarone HCl]: the “inhibition effect on different cancer cell lines (in words)” value is given as “significant inhibition effect”.

On to `COC(=O)[C@H]1[C@H]2C[C@@H]3c4[nH]c5cc(OC)ccc5c4CCN3C[C@H]2C[C@@H](OC(=O)c2cc(OC)c(OC)c(OC)c2)[C@@H]1OC` [Reserpine], for which the “inhibition effect on different cancer cell lines (in words)” value was “significant inhibition effect”.

With `COc1ccc(-n2nc(C(N)=O)c3c2C(=O)N(c2ccc(N4CCCCC4=O)cc2)CC3)cc1` [Apixaban], the “inhibition effect on different cancer cell lines (in words)” value is “significant inhibition effect”.

As for `CCCC(=O)OCOC(=O)C1=C(C)NC(C)=C(C(=O)OC)C1c1cccc(Cl)c1Cl` (stereo not shown) [Cleviprex (Clevidipine), Clevidipine], the “inhibition effect on different cancer cell lines (in words)” value is given as “significant inhibition effect”.

On to `Nc1cccc2c1CN(C1CCC(=O)NC1=O)C2=O` (stereo not shown) [Lenalidomide], for which the “inhibition effect on different cancer cell lines (in words)” value is “significant inhibition effect”.

With `NC12CC3CC(CC(C3)C1)C2` [Amantadine hydrochloride (Symmetrel), Amantadine hydrochloride], the “inhibition effect on different cancer cell lines (in words)” value is “significant inhibition effect”.

`Nc1ncnc2c1ncn2[C@@H]1O[C@H](CO)[C@@H](O)[C@H]1O` [Adenosine (Adenocard), Adenosine]: the “inhibition effect on different cancer cell lines (in words)” value is on record as “significant inhibition effect”.

For the molecule `CS(=O)(=O)OCCCCOS(C)(=O)=O` [Busulfan (Myleran, Busulfex), Busulfan], the “inhibition effect on different cancer cell lines (in words)” value is given as “significant inhibition effect”.

On to `O=S(=O)(O)c1cc(O)ccc1O` [Ethamsylate], for which the “inhibition effect on different cancer cell lines (in words)” value is reported as “significant inhibition effect”.

In the case of `CC(C)NC[C@@H](O)COc1ccc(CC(N)=O)cc1` [(R)-(+)-Atenolol], the “inhibition effect on different cancer cell lines (in words)” value is “significant inhibition effect”.

Consider `O=C(O[C@H]1CN2CCC1CC2)N1CCc2ccccc2[C@@H]1c1ccccc1` [Solifenacin succinate], for which the “inhibition effect on different cancer cell lines (in words)” value is recorded as “significant inhibition effect”.

Consider `CC(C)C[C@H](NC(=O)[C@H](CCc1ccccc1)NC(=O)CN1CCOCC1)C(=O)N[C@@H](Cc1ccccc1)C(=O)N[C@@H](CC(C)C)C(=O)[C@@]1(C)CO1` [Carfilzomib (PR-171), Carfilzomib], for which the “inhibition effect on different cancer cell lines (in words)” value is “significant inhibition effect”.

As to `CCOCC(O)COc1ccc(NC(=O)CC[S+](C)C)cc1` (stereo not shown) [Suplatast tosylate], the “inhibition effect on different cancer cell lines (in words)” value is listed as “significant inhibition effect”.

For the molecule `CN(Cc1cc(Br)cc(Br)c1N)C1CCCCC1` [Bromhexine HCl], the “inhibition effect on different cancer cell lines (in words)” value is recorded as “significant inhibition effect”.

Turning to `NS(=O)(=O)c1cc(Cl)c(Cl)c(S(N)(=O)=O)c1` [Dichlorphenamide (Diclofenamide), Dichlorphenamide], the “inhibition effect on different cancer cell lines (in words)” value was “significant inhibition effect”.

Regarding `Cc1cc2c(cc1S(N)(=O)=O)S(=O)(=O)CCC2` [Meticrane], the “inhibition effect on different cancer cell lines (in words)” value is recorded as “significant inhibition effect”.

For `Cc1ccccc1N1C(=O)c2cc(S(N)(=O)=O)c(Cl)cc2NC1C` (stereo not shown) [Metolazone (Zaroxolyn), Metolazone], the “inhibition effect on different cancer cell lines (in words)” value was “significant inhibition effect”.

On to `Cc1cn([C@H]2C[C@H](N=[N+]=[N-])[C@@H](CO)O2)c(=O)[nH]c1=O` [Zidovudine (Retrovir), Zidovudine], for which the “inhibition effect on different cancer cell lines (in words)” value is given as “significant inhibition effect”.

On to `CCOc1nc2cccc(C(=O)OCc3oc(=O)oc3C)c2n1Cc1ccc(-c2ccccc2-c2noc(=O)[nH]2)cc1` [Azilsartan Medoxomil (TAK-491), Azilsartan Medoxomil], for which the “inhibition effect on different cancer cell lines (in words)” value was “significant inhibition effect”.

For `CCCCC(=O)N(Cc1ccc(-c2ccccc2-c2nnn[nH]2)cc1)[C@H](C(=O)O)C(C)C` [Valsartan (Diovan), Valsartan], the “inhibition effect on different cancer cell lines (in words)” value is “significant inhibition effect”.

Take Ibutilide fumarate: the “inhibition effect on different cancer cell lines (in words)” value was “significant inhibition effect”.

As to `NCCc1c[nH]cn1.O=P(O)(O)O` [Histamine Phosphate], the “inhibition effect on different cancer cell lines (in words)” value is reported as “significant inhibition effect”.

Take `CCOC(=O)OC(C)OC1=C(C(=O)Nc2ccccn2)N(C)S(=O)(=O)c2ccccc21` (stereo not shown) [Ampiroxicam]: the “inhibition effect on different cancer cell lines (in words)” value is recorded as “significant inhibition effect”.

On to `CC(N/C(=N\C#N)Nc1ccncc1)C(C)(C)C` (stereo not shown) [Pinacidil], for which the “inhibition effect on different cancer cell lines (in words)” value is recorded as “significant inhibition effect”.

Turning to `CC(C)NCC(O)COc1cccc2ccccc12` (stereo not shown) [Propranolol HCl], the “inhibition effect on different cancer cell lines (in words)” value was “significant inhibition effect”.

Regarding `C[C@H](Cc1cc2c(c(C(N)=O)c1)N(CCCO)CC2)NCCOc1ccccc1OCC(F)(F)F` [Silodosin (Rapaflo), Silodosin], the “inhibition effect on different cancer cell lines (in words)” value is “significant inhibition effect”.

For the molecule `CS(=O)(=O)Nc1ccc([N+](=O)[O-])cc1Oc1ccccc1` [Nimesulide], the “inhibition effect on different cancer cell lines (in words)” value is reported as “significant inhibition effect”.

For the molecule `CS(=O)(=O)c1ccc([C@@H](O)[C@@H](CO)NC(=O)C(Cl)Cl)cc1` [Thiamphenicol (Thiophenicol), Thiamphenicol], the “inhibition effect on different cancer cell lines (in words)” value is given as “significant inhibition effect”.

Take `C[N+](C)(C)CC(O)CC(=O)O.[Cl-]` (racemic) [DL-Carnitine hydrochloride]: the “inhibition effect on different cancer cell lines (in words)” value was “significant inhibition effect”.

Turning to `CC1=NN(c2ccccc2)C(=O)C1` [Edaravone (MCI-186), Edaravone], the “inhibition effect on different cancer cell lines (in words)” value is reported as “significant inhibition effect”.

For the molecule `Cc1ccc(C)c(OCCCC(C)(C)C(=O)O)c1` [Gemfibrozil (Lopid), Gemfibrozil], the “inhibition effect on different cancer cell lines (in words)” value was “significant inhibition effect”.

`CN1C(CCl)Nc2cc(Cl)c(S(N)(=O)=O)cc2S1(=O)=O` (stereo not shown) [Methyclothiazide]: the “inhibition effect on different cancer cell lines (in words)” value is reported as “significant inhibition effect”.

The record behind these values is patent publication US20170304388A1, “NEW INDICATION OF CARDIOVASCULAR DRUGS FOR PREPARATION OF CANCER INHIBITION PHARMACEUTICAL COMPOSITION” (LAUNX BIOMEDICAL CO., LTD., priority 2014, published 2017).
